Measurements published in patent US4062862A, “5-Benzyl-2-oxazolidone derivatives and a process for producing the same” (Nippon Chemiphar Co., Ltd., priority 1975, dated 1977).

What was measured:
[1] = tested on: acetic acid-induced writhing syndrome in mice; assay: Analgetic effect, Acetic Acid-Induced Writhing Method; format: in vivo, dd Male mice; settings: 100 mg/kg oral, 30 min before acetic acid; for Writhing syndrome (number within 20 minutes): control 52.1 ± 2.7; for Inhibitory per cent (writhing): vs control
Description: dd Male mice weighing 18 to 22g, one group consisting of 10 animals, were given the intraperitoneal injection of 0.6% acetic acid in a dose of 0.1ml/10g-body weight. The number of writhing syndromes occurring within 20 minutes after injection was observed. Animals were orally given the test compounds suspended in 0.2% carboxymethylcellulose solution 30 minutes before the injection of acetic acid in a dose of 100mg/kg-body weight. Inhibitory percent was estimated in comparison with a control given the 0.2% carboxymethycellulose solution only. Aminopyrine was used as active placebo.

pain threshold in mice = assay: Analgetic effect, Pressure Test (pain threshold, tail pressure); format: in vivo, dd Male mice; settings: 100 mg/kg oral; for Pain threshold, Mean ± SE, 30 min / Pain threshold, Mean ± SE, 60 min / Pain threshold, Mean ± SE, 90 min / Pain threshold, Mean ± SE, 120 min: *p <0.05, **p <0.01, ***p <0.001
Description: dd Male mice weighing 18 to 22 g (pain threshold ranging within 30 to 50 mmHg), one group consisting of 10 animals, were given orally the test compounds suspended in 0.2% carboxymethylcellulose solution in a dose of 100mg/kg-body weight. Pain threshold were measured at 30, 60, 90 and 120 minutes after the administration of the test compounds while pain reaction occurring by application of pressure on tails of animals was referred to as indication. Aminopyrine was used as active placebo.

mice [2] = assay: Muscular relaxing effect, Pinna Reflex Test (P.r), oral, mice; format: in vivo, dd Male mice; settings: Mus musculus, oral, mice; for responders at 500 mg/kg: Table 2, read-out: Inhibition percent of the central muscular relaxing effect, P.r (Pinna Reflex Test)
Description: (§1) dd Male mice weighing 18 to 22 g, one group consisting of 10 animals, were orally given the compounds (I) to (V) as indicated below suspended in 0.2% carboxymethylcellulose solution in a dose of 0.25ml/10g-body weight. Mephenesin was used as active placebo.
Pinna reflex was observed by using mandolin wire for 1/4 injection syringe.

[3] = tested on: carrageenan-induced edema in rats; assay: Antiinflammatory effect on carrageenan-induced edema; format: in vivo, Wistar male rats
Description: […] One hour after the administration of the test compounds, the hind paw was given a subcutaneous injection of 0.05ml of 0.5% carrageenan saline solution, and volume of the hind paw was measured at 1, 2, 3, 4, 5 and 6 hours after the injection of carrageenan by a volume differential meter. Inhibitory percent was calculated based on the swelling in the control. Phenybutazone was used as active placebo.

mice [4] = assay: Muscular relaxing effect, Inclined Plane Test (I.P), oral, mice; format: in vivo, dd Male mice; settings: Mus musculus, oral, mice; for responders at 500 mg/kg: Table 2, read-out: Inhibition percent of the central muscular relaxing effect, I.P (Inclined Plane Test)
Description: as §1
Mice were placed on veneer inclined at an angle of 30° and on wire-netting inclined at an angle of 60° of which one division is 5 mm square, and mice sliding down were observed as positive, in comparison with normal behavior.

mice [5] = assay: Muscular relaxing effect, Traction Test (T.T), oral, mice; format: in vivo, dd Male mice; settings: Mus musculus, oral, mice; for responders at 500 mg/kg: Table 2, read-out: Inhibition percent of the central muscular relaxing effect, T.T (Traction Test)
Description: as §1

mice [6] = assay: Muscular relaxing effect, Rotarod Method (R.R), oral, mice; format: in vivo, dd Male mice; settings: Mus musculus, oral, mice; for responders at 500 mg/kg: Table 2, read-out: Inhibition percent of the central muscular relaxing effect, R.R (Rotarod Method)
Description: as §1
Mice were placed on Rotar Load (made by Natsume Seisakusho Co., Ltd.) having a diameter of 3 cm rotating at a speed of 10 rpm and falling (occurring within 3 minutes) was observed.

mice [7] = assay: Muscular relaxing effect, Corneal Reflex Test (C.r), oral, mice; format: in vivo, dd Male mice; settings: Mus musculus; Table 2; 500 mg/kg; oral; mice; read-out: Inhibition percent of the central muscular relaxing effect, C.r (Corneal Reflex Test)
Description: as §1
Corneal reflex was observed by using mandolin wire for 1/4 injection syringe.

mice [8] = assay: Muscular relaxing effect, Righting Reflex Test (R.r), oral, mice; format: in vivo, dd Male mice; settings: Mus musculus, oral, mice; for responders at 500 mg/kg: Table 2, read-out: Inhibition percent of the central muscular relaxing effect, R.r (Righting Reflex Test)
Description: as §1

[9] = Table 1, maximum response 15-180 min, Litchfield Wilcoxon

Row | Structure (SMILES) | Pain threshold Increase Ratio (pain threshold in mice) | Pain threshold, Mean ± SE, 30 min (pain threshold in mice) | Pain threshold, Mean ± SE, 60 min (pain threshold in mice) | Pain threshold, Mean ± SE, 90 min (pain threshold in mice) | Pain threshold, Mean ± SE, 120 min (pain threshold in mice) | responders at 500 mg/kg (mice [2]) | responders at 500 mg/kg (mice [4]) | responders at 500 mg/kg (mice [5]) | responders at 500 mg/kg (mice [6]) | responders at 500 mg/kg (mice [7]) | responders at 500 mg/kg (mice [8]) | Inhibitory per cent, carrageenan-induced edema, 1 hr ([3]; Table 6, 200 mg/kg oral) | Inhibitory per cent, carrageenan-induced edema, 2 hrs. ([3]; Table 6, 200 mg/kg oral) | Inhibitory per cent, carrageenan-induced edema, 3 hrs. ([3]; Table 6, 200 mg/kg oral) | Inhibitory per cent, carrageenan-induced edema, 4 hrs. ([3]; Table 6, 200 mg/kg oral) | Inhibitory per cent, carrageenan-induced edema, 5 hrs. ([3]; Table 6, 200 mg/kg oral) | Inhibitory per cent, carrageenan-induced edema, 6 hrs. ([3]; Table 6, 200 mg/kg oral) | also measured
1 | Cc1c(N(C)C)c(=O)n(-c2ccccc2)n1C [Aminopyrine, reference compound] | 2.20 | 75.7 ± 5.4 mmHg | 67.3 ± 5.4 mmHg | 70.8 ± 5.3 mmHg | 53.1 ± 4.5 mmHg |  |  |  |  |  |  |  |  |  |  |  |  | Writhing syndrome (number within 20 minutes) [1]: 19.3 ± 6.0; Inhibitory per cent (writhing) [1]: 62.9 per cent
2 | CCc1ccccc1CC1CNC(=O)O1 (stereo not drawn) [Compound VI, 5-(o-ethylbenzyl)-2-oxazolidone] |  |  |  |  |  | 10% | 50% | 40% | 60% | 0% | 10% |  |  |  |  |  |  | Inhibitory per cent, carrageenan-induced edema, 1 hr ([3]; Table 6, 100 mg/kg oral): 27.8 per cent; Inhibitory per cent, carrageenan-induced edema, 2 hrs. ([3]; Table 6, 100 mg/kg oral): 36.3 per cent; Inhibitory per cent, carrageenan-induced edema, 3 hrs. ([3]; Table 6, 100 mg/kg oral): 53.6 per cent; Inhibitory per cent, carrageenan-induced edema, 4 hrs. ([3]; Table 6, 100 mg/kg oral): 28.9 per cent; Inhibitory per cent, carrageenan-induced edema, 5 hrs. ([3]; Table 6, 100 mg/kg oral): 22.0 per cent; Inhibitory per cent, carrageenan-induced edema, 6 hrs. ([3]; Table 6, 100 mg/kg oral): 17.4 per cent
3 | O=C1NCC(Cc2ccc(F)cc2)O1 (stereo not drawn) [Compound XI, 5-(p-fluorobenzyl)-2-oxazolidone] |  |  |  |  |  | 60% | 80% | 90% | 100% | 0% | 10% | 38.3 per cent | 47.5 per cent | 44.5 per cent | 34.4 per cent | 9.2 per cent | 8.9 per cent | 
4 | O=C1NCC(Cc2ccccc2)O1 (stereo not drawn) [I, 5-benzyl-2-oxazolidone] | 1.34 | 58.2 ± 3.2 mmHg | 57.8 ± 3.2 mmHg | 51.5 ± 2.8 mmHg | 50.7 ± 2.2 mmHg |  |  |  |  |  |  |  |  |  |  |  |  | ED50 (mice [2]; [9]): 800 mg/kg; Writhing syndrome (number within 20 minutes) [1]: 42.3 ± 5.9; Inhibitory per cent (writhing) [1]: 18.9 per cent; Inhibitory per cent, carrageenan-induced edema, 3 hrs. ([3]; Table 5, 200 mg/kg oral): 49.5 per cent; Inhibitory per cent, carrageenan-induced edema, 6 hrs. ([3]; Table 5, 200 mg/kg oral): 13.0 per cent; ED50 (mice [4]; [9]): 940 mg/kg; ED50 (mice [5]; [9]): 660 mg/kg; ED50 (mice [6]; [9]): 460 mg/kg; ED50 (mice [8]; [9]): 1100 mg/kg
5 | O=C1NCC(Cc2cccc(C(F)(F)F)c2)O1 (stereo not drawn) [IX, 5-(m-trifluoromethylbenzyl)-2-oxazolidone] |  |  |  |  |  | 60% | 60% | 60% | 90% | 0% | 0% | 45.0 per cent | 49.4 per cent | 20.8 per cent | 11.3 per cent | 14.5 per cent | 11.5 per cent | 
6 | O=C1NCC(Cc2ccccc2C(F)(F)F)O1 (stereo not drawn) [VIII, 5-(o-trifluoromethylbenzyl)-2-oxazolidone] | 1.28 | 62.0 ± 4.6 mmHg | 60.2 ± 3.0 mmHg | 57.5 ± 3.2 mmHg | 52.9 ± 2.0 mmHg | 10% | 40% | 40% | 90% | 0% | 10% | 21.7 per cent | 49.7 per cent | 27.4 per cent | 35.6 per cent | 9.2 per cent | 0.5 per cent | 
7 | O=C1NCC(Cc2ccccc2Br)O1 (stereo not drawn) [XII, 5-(o-bromobenzyl)-2-oxazolidone] | 1.24 | 59.6 ± 3.4 mmHg | 59.4 ± 3.7 mmHg | 57.5 ± 1.9 mmHg | 52.7 ± 2.1 mmHg | 20% | 80% | 60% | 100% | 0% | 0% |  |  |  |  |  |  | 
8 | O=C1NCC(Cc2ccccc2F)O1 (stereo not drawn) [XIII, 5-(o-fluorobenzyl)-2-oxazolidone] | 1.13 | 52.1 ± 3.4 mmHg | 53.7 ± 2.6 mmHg | 50.4 ± 2.8 mmHg | 47.3 ± 1.8 mmHg | 0% | 50% | 70% | 90% | 10% | 20% |  |  |  |  |  |  | 
